Columns and labels:
Format in all cases: in vivo
Diabrotica balteata = test: Example B1: Diabrotica balteata (corn root worm), maize sprouts sprayed, L2 larvae; settings: 96 h, application rate of 200 ppm, 4 days after infestation, read-out: control in at least one of the two categories (mortality or growth inhibition)
Protocol: Example B1: Diabrotica balteata (Corn Root Worm)
Maize sprouts placed onto an agar layer in 24-well microtiter plates were treated with aqueous test solutions prepared from 10′000 ppm DMSO stock solutions by spraying. After drying, the plates were infested with L2 larvae (6 to 10 per well). The samples were assessed for mortality and growth inhibition in comparison to untreated samples 4 days after infestation.
The following compounds gave an effect of at least 80% control in at least one of the two categories (mortality or growth inhibition) at an application rate of 200 ppm: […]

Chilo suppressalis = test: Example B3: Chilo suppressalis (striped rice stem borer), artificial diet, L2 larvae; settings: 144 h, application rate of 200 ppm, 6 days after infestation, read-out: control in at least one of the three categories (mortality, anti-feedant effect, or growth inhibition)
Protocol: Example B3: Chilo suppressalis (Striped Rice Stem Borer)
24-well microtiter plates with artificial diet were treated with aqueous test solutions prepared from 10′000 ppm DMSO stock solutions by pipetting. After drying, the plates were infested with L2 larvae (6-8 per well). The samples were assessed for mortality, anti-feeding effect, and growth inhibition in comparison to untreated samples 6 days after infestation. Control of Chilo suppressalis by a test sample is given when at least one of the categories mortality, anti-feedant effect, and growth inhibition is higher than the untreated sample.

Plutella xylostella [1] = test: Example B4: Plutella xylostella (diamond back moth), artificial diet, 24-well, eggs; settings: 192 h, application rate of 200 ppm, 8 days after infestation, 24-well plates, read-out: control in at least one of the two categories (mortality or growth inhibition)
Protocol: Example B4: Plutella xylostella (Diamond Back Moth)
24-well microtiter plates with artificial diet were treated with aqueous test solutions prepared from 10′000 ppm DMSO stock solutions by pipetting. After drying, Plutella eggs were pipetted through a plastic stencil onto a gel blotting paper and the plate was closed with it. The samples were assessed for mortality and growth inhibition in comparison to untreated samples 8 days after infestation. The following compounds gave an effect of at least 80% control in at least one of the two categories (mortality or growth inhibition) at an application rate of 200 ppm: […]

Spodoptera littoralis = test: Example B7: Spodoptera littoralis (Egyptian cotton leaf worm), cotton leaf discs sprayed, L1 larvae; settings: foliar, 72 h, application rate of 200 ppm, 3 days after infestation, read-out: control in at least one of the three categories (mortality, anti-feedant effect, or growth inhibition)
Protocol: Example B7: Spodoptera littoralis (Egyptian Cotton Leaf Worm)
Cotton leaf discs were placed onto agar in 24-well microtiter plates and sprayed with aqueous test solutions prepared from 10′000 ppm DMSO stock solutions. After drying the leaf discs were infested with five L1 larvae. The samples were assessed for mortality, anti-feeding effect, and growth inhibition in comparison to untreated samples 3 days after infestation. Control of Spodoptera littoralis by a test sample is given when at least one of the categories mortality, anti-feedant effect, and growth inhibition is higher than the untreated sample.

Plutella xylostella [2] = test: Example B10: Plutella xylostella (diamondback moth), artificial diet, 96-well, eggs; settings: 216 h, application rate of 500 ppm, 9 days after infestation, 96-well plates
Protocol: Example B10: Plutella xylostella (Diamondback Moth)
96-well microtiter plates containing artificial diet were treated with aqueous test solutions, prepared from 10′000 ppm DMSO stock solutions, by a liquid handling robot. After drying, eggs (˜30 per well) were infested onto a netted lid which was suspended above the diet. The eggs hatch and L1 larvae move down to the diet. The samples were assessed for mortality 9 days after infestation.
The following compounds gave an effect of at least 80% average mortality at an application rate of 500 ppm: […]

Myzus persicae [3] = test: Example B6: Myzus persicae (green peach aphid), intrinsic activity, sucrose solution, 24-well; settings: 120 h, test rate of 12 ppm, 5 days after infestation
Text: Example B6: Myzus Persicae (Green Peach Aphid): Intrinsic Activity
Test compounds prepared from 10′000 ppm DMSO stock solutions were applied by pipette into 24-well microtiter plates and mixed with sucrose solution. The plates were closed with a stretched Parafilm. A plastic stencil with 24 holes was placed onto the plate and infested pea seedlings were placed directly on the Parafilm. The infested plate was closed with a gel blotting paper and another plastic stencil and then turned upside down. The samples were assessed for mortality 5 days after infestation.

Myzus persicae [4] = test: Example B9: Myzus persicae (green peach aphid), sucrose solution, 96-well; settings: 120 h, application rate of 50 ppm, 5 days after infestation, 96-well plates
Text: Example B9: Myzus persicae (Green Peach Aphid)
Test compounds prepared from 10′000 ppm DMSO stock solutions were applied by a liquid handling robot into 96-well microtiter plates and mixed with a sucrose solution. Parafilm was stretched over the 96-well microtiter plate and a plastic stencil with 96 holes was placed onto the plate. Aphids were sieved into the wells directly onto the Parafilm. The infested plates were closed with a gel blotting card and a second plastic stencil and then turned upside down. The samples were assessed for mortality 5 days after infestation.

Euschistus heros = test: Example B2: Euschistus heros (neotropical brown stink bug), soybean leaves sprayed, N2 nymphs; settings: 120 h, application rate of 200 ppm, 5 days after infestation, read-out: control in at least one of the two categories (mortality or growth inhibition)
Protocol: Example B2: Euschistus heros (Neotropical Brown Stink Bug)
Soybean leaves on agar in 24-well microtiter plates were sprayed with aqueous test solutions prepared from 10′000 ppm DMSO stock solutions. After drying the leaves were infested with N2 nymphs. The samples were assessed for mortality and growth inhibition in comparison to untreated samples 5 days after infestation.
The following compounds gave an effect of at least 80% control in at least one of the two categories (mortality or growth inhibition) at an application rate of 200 ppm: F2, F4, F6, F8, F12, F16.

CC(NC(=O)c1cc(SC(F)(F)F)cc(C(F)(F)F)c1)c1ncnn1-c1ccc(C#N)cn1 (stereo not drawn) [Compound F5, N-[1-[2-(5-cyano-2-pyridyl)-1,2,4-triazol-3-yl]ethyl]-3-(trifluoromethyl)-5-(trifluoromethylsulfanyl) benzamide]
≥ 80%: percent control (mortality or growth inhibition) at 200 ppm (Diabrotica balteata) | percent control (mortality, anti-feedant effect or growth inhibition) at 200 ppm (Chilo suppressalis) | percent control (mortality or growth inhibition) at 200 ppm (Plutella xylostella [1]) | percent control (mortality, anti-feedant effect or growth inhibition) at 200 ppm (Spodoptera littoralis) | mortality at 500 ppm (Plutella xylostella [2])

CC(NC(=O)c1cc(OC(F)(F)F)cc(C(F)(F)F)c1)c1ncnn1-c1ccc(C#N)cn1 (stereo not drawn) [Compound F17, N-[1-[2-(5-cyano-2-pyridyl)-1,2,4-triazol-3-yl]ethyl]-3-(trifluoromethoxy)-5-(trifluoromethyl) benzamide]
≥ 80%: percent control (mortality or growth inhibition) at 200 ppm (Diabrotica balteata) | percent control (mortality, anti-feedant effect or growth inhibition) at 200 ppm (Chilo suppressalis) | percent control (mortality or growth inhibition) at 200 ppm (Plutella xylostella [1]) | percent control (mortality, anti-feedant effect or growth inhibition) at 200 ppm (Spodoptera littoralis) | mortality at 500 ppm (Plutella xylostella [2])

CC(NC(=O)c1cc(OCC(F)(F)F)cc(C(F)(F)F)c1)c1ncnn1-c1ccc(C#N)cn1 (stereo not drawn) [Compound F21, N-[1-[2-(5-cyano-2-pyridyl)-1,2,4-triazol-3-yl]ethyl]-3-(2,2,2-trifluoroethoxy)-5-(trifluoromethyl) benzamide]
≥ 80%: percent control (mortality or growth inhibition) at 200 ppm (Diabrotica balteata) | percent control (mortality, anti-feedant effect or growth inhibition) at 200 ppm (Chilo suppressalis) | percent control (mortality or growth inhibition) at 200 ppm (Plutella xylostella [1]) | percent control (mortality, anti-feedant effect or growth inhibition) at 200 ppm (Spodoptera littoralis) | mortality at 500 ppm (Plutella xylostella [2])

Cc1nc(C(C)NC(=O)c2cc(C(F)F)cc(C(F)(F)F)c2)n(-c2ccc(C#N)cn2)n1 (stereo not drawn) [Compound F9, N-[1-[2-(5-cyano-2-pyridyl)-5-methyl-1,2,4-triazol-3-yl]ethyl]-3-(difluoromethyl)-5-(trifluoromethyl) benzamide]
≥ 80%: percent control (mortality or growth inhibition) at 200 ppm (Diabrotica balteata) | percent control (mortality, anti-feedant effect or growth inhibition) at 200 ppm (Chilo suppressalis) | percent control (mortality or growth inhibition) at 200 ppm (Plutella xylostella [1]) | mortality at 12 ppm (Myzus persicae [3]) | percent control (mortality, anti-feedant effect or growth inhibition) at 200 ppm (Spodoptera littoralis) | mortality at 50 ppm (Myzus persicae [4])

CC(NC(=O)c1cc(Br)cc(C(F)(F)F)c1)c1nc(C2CC2)nn1-c1ccc(C#N)cn1 (stereo not drawn) [Compound F11, 3-bromo-N-[1-[2-(5-cyano-2-pyridyl)-5-cyclopropyl-1,2,4-triazol-3-yl]ethyl]-5-(trifluoromethyl) benzamide]
≥ 80%: percent control (mortality or growth inhibition) at 200 ppm (Diabrotica balteata) | percent control (mortality, anti-feedant effect or growth inhibition) at 200 ppm (Chilo suppressalis) | percent control (mortality or growth inhibition) at 200 ppm (Plutella xylostella [1]) | mortality at 500 ppm (Plutella xylostella [2])

CC(c1ncnn1-c1ncc(C#N)cn1)N(CC1CC1)C(=O)c1cc(C(F)(F)F)cc(C(F)(F)F)c1 (stereo not drawn) [Compound F4, N-[1-[2-(5-cyanopyrimidin-2-yl)-1,2,4-triazol-3-yl]ethyl]-N-(cyclopropylmethyl)-3,5-bis(trifluoromethyl) benzamide]
≥ 80%: percent control (mortality or growth inhibition) at 200 ppm (Diabrotica balteata) | percent control (mortality or growth inhibition) at 200 ppm (Euschistus heros) | percent control (mortality, anti-feedant effect or growth inhibition) at 200 ppm (Spodoptera littoralis)

CC(NC(=O)c1cc(C(F)(F)F)cc(C(F)(F)F)c1)c1ncnn1-c1ccc(C#N)cn1 (stereo not drawn) [Compound F3, N-[1-[2-(5-cyano-2-pyridyl)-1,2,4-triazol-3-yl]ethyl]-3,5-bis(trifluoromethyl) benzamide]
≥ 80%: percent control (mortality or growth inhibition) at 200 ppm (Diabrotica balteata) | percent control (mortality, anti-feedant effect or growth inhibition) at 200 ppm (Chilo suppressalis) | percent control (mortality or growth inhibition) at 200 ppm (Plutella xylostella [1]) | percent control (mortality, anti-feedant effect or growth inhibition) at 200 ppm (Spodoptera littoralis) | mortality at 500 ppm (Plutella xylostella [2])

CC(NC(=O)c1cc(OCC(F)F)cc(C(F)(F)F)c1)c1ncnn1-c1ccc(C#N)cn1 (stereo not drawn) [Compound F18, N-[1-[2-(5-cyano-2-pyridyl)-1,2,4-triazol-3-yl]ethyl]-3-(2,2-difluoroethoxy)-5-(trifluoromethyl) benzamide]
≥ 80%: percent control (mortality or growth inhibition) at 200 ppm (Diabrotica balteata) | percent control (mortality, anti-feedant effect or growth inhibition) at 200 ppm (Chilo suppressalis) | percent control (mortality or growth inhibition) at 200 ppm (Plutella xylostella [1]) | percent control (mortality, anti-feedant effect or growth inhibition) at 200 ppm (Spodoptera littoralis) | mortality at 500 ppm (Plutella xylostella [2])

CC(NC(=O)c1cc(Br)cc(OC(F)F)c1)c1ncnn1-c1ccc(C#N)cn1 (stereo not drawn) [Compound F1, 3-bromo-N-[1-[2-(5-cyano-2-pyridyl)-1,2,4-triazol-3-yl]ethyl]-5-( ) difluoromethoxy benzamide]
≥ 80%: percent control (mortality or growth inhibition) at 200 ppm (Diabrotica balteata) | percent control (mortality, anti-feedant effect or growth inhibition) at 200 ppm (Chilo suppressalis) | percent control (mortality or growth inhibition) at 200 ppm (Plutella xylostella [1]) | percent control (mortality, anti-feedant effect or growth inhibition) at 200 ppm (Spodoptera littoralis) | mortality at 500 ppm (Plutella xylostella [2])

CC(NC(=O)c1cc(SC(F)(F)F)cc(C(F)(F)F)c1)c1nc(C2CC2)nn1-c1ccc(C#N)cn1 (stereo not drawn) [Compound F12, N-[1-[2-(5-cyano-2-pyridyl)-5-cyclopropyl-1,2,4-triazol-3-yl]ethyl]-3-(trifluoromethyl)-5-(trifluoromethylsulfanyl) benzamide]
≥ 80%: percent control (mortality or growth inhibition) at 200 ppm (Diabrotica balteata) | percent control (mortality or growth inhibition) at 200 ppm (Euschistus heros) | percent control (mortality, anti-feedant effect or growth inhibition) at 200 ppm (Chilo suppressalis) | percent control (mortality or growth inhibition) at 200 ppm (Plutella xylostella [1]) | percent control (mortality, anti-feedant effect or growth inhibition) at 200 ppm (Spodoptera littoralis) | mortality at 500 ppm (Plutella xylostella [2])

CC(NC(=O)c1cc(C(F)(F)F)cc(C(F)(F)F)c1)c1nc(C2CC2)nn1-c1ccc(C#N)cn1 (stereo not drawn) [Compound F10, N-[1-[2-(5-cyano-2-pyridyl)-5-cyclopropyl-1,2,4-triazol-3-yl]ethyl]-3,5-bis(trifluoromethyl) benzamide]
≥ 80%: percent control (mortality or growth inhibition) at 200 ppm (Diabrotica balteata) | percent control (mortality, anti-feedant effect or growth inhibition) at 200 ppm (Chilo suppressalis) | percent control (mortality or growth inhibition) at 200 ppm (Plutella xylostella [1]) | percent control (mortality, anti-feedant effect or growth inhibition) at 200 ppm (Spodoptera littoralis) | mortality at 500 ppm (Plutella xylostella [2])
